We go through ten molecules from patent publication US8946264B2, “Pyridine derivative” (Daiichi Sankyo Company, Limited, priority 2009, dated 2015).

In general, inhibition in vivo refers to the drop in the measured response relative to a control, in per cent. The term EC50 denotes the concentration giving half of the maximal effect. A higher EC50 goes with a need for much substance. As usually defined, the Emax is the maximal effect, on the per cent scale that the assay sets.

Assay [1] deals with KK mice. The assay is described as follows: Hypoglycemic effect (glucose lowering rate) in diabetic KK mice. Type of assay: in vivo. The settings on record: male KK mice, diet admixture containing 0.03% of the compound, three days, plasma glucose on the 3rd day vs control group; for inhibition in vivo at 0.03 % in diet: Mus musculus, po, 72 h. From the text: Six-week-old male KK mice were purchased from CLEA Japan, Inc. and then were fed until 15 to 20 weeks old to develop diabetes. The mice were individually fed during the adaptation period and the test period, and water and feed (FR2, Funabashi Farm) were freely ingested.
At the start of the experiment, after body weight measurement, blood was collected from the tail vein of the mice into a heparin-coated glass tube and centrifuged, and then plasma was separated. The glucose level in the plasma was measured by Glucoloader GXT (A&T Corp.), and individuals having a plasma glucose level of about 350 mg/dl or more were selected. The mice were grouped, each group having 3 to 4 mice, to make the average body weight and the average plasma glucose level similar. Each compound was administered to a compound group with a diet admixture containing 0.03% of the compound. A separate group in which the mice were fed only with diet was a control group.
The experiment period (drug administration period) was three days. The grouping day was the 0th day. On the 3rd day, the body weight was measured and blood was collected from the tail vein to measure the plasma glucose level.
The glucose lowering rate was determined by the following formula. Glucose lowering rate=[(Control group plasma glucose level−Compound-administered group plasma glucose level)/Control group plasma glucose level]×100

For assay [2], the target named is T1, GAL4-PPARγ chimeric receptor (Homo sapiens, UniProt P37231).
T1 construct: expressed in transfected cells; host or cells: COS-7 (monkey kidney-derived cell line)
The assay is described as follows: PPARγ activation effect/modulator activity, GAL4-PPARγ luciferase reporter assay in COS-7 cells. It is filed as cell-based. The note with it: for Emax: COS-7, maximum luciferase activity, positive control rosiglitazone = 100%, DMSO control = 0%. The protocol: A test was carried out according to the reporter assay method with reference to a report by Kliewer et al. (Journal of Biological Chemistry, 1995, Vol. 270 (22), p. 12953-12956) as a method for measuring the ability of a compound to activate PPARγ (hereinafter PPARγ activation effect/modulator activity). Commercially available reagents and kits were used according to the attached instructions. The details will be shown below. The ligand-binding domain of human PPARγ (corresponding to about 300 amino acids at the carboxy end) was bound to the DNA-binding domain of the yeast transcription factor GAL4 (corresponding to 147 amino acids at the amino end) with reference to the report by Kliewer et al. to prepare a gene expressing a GAL4-PPARγ receptor. The plasmid pM-PPARγ obtained by the above operation includes the nucleotide sequence represented by SEQ ID NO: 4 of the Sequence Listing and encodes an amino acid sequence represented by SEQ ID NO: 5 of the Sequence Listing containing amino acids 1 to 147 of the yeast transcription factor GAL4 at the amino end and containing amino acids 175 to 475 of human PPARγ and a stop codon at the carboxy end. The plasmid is a gene that can express a GAL4-PPARγ chimeric receptor in mammalian cells. The previously acquired plasmid pM-PPARγ and the plasmid pFR-Luc purchased from Stratagene Cloning Systems, Inc. were dissolved in deionised water at a concentration of 1 mg/mL each. […] COS-7 cells were transfected with 4.8 micrograms per flask of the plasmid pM-PPARγ and 19.2 μg per flask of the plasmid pFR-Luc using Lipofectamine 2000 transfection reagent (manufactured by Invitrogen Corporation), and the cells were cultured overnight. […] The test compound was dissolved in dimethyl sulfoxide at a concentration of 4 mM. The solution was serially diluted 3.3-fold with dimethyl sulfoxide to prepare solutions of the compound at concentrations up to 400 nM. Dimethyl sulfoxide was prepared for the control group. Rosiglitazone dissolved in dimethyl sulfoxide at a concentration of 4 mM was prepared for the positive control group. They were diluted 20-fold with the medium, and 5 μL of the dilution was added to the wells in which the cells were grown. […] After the addition, the cells were cultured overnight. On the following day, the medium was removed, and Luc Lite (manufactured by PerkinElmer Inc.) was prepared according to the attached document and added at 50 microliters per well. […] The amount of luminescence in each well was measured as luciferase activity using Analyst (Molecular Devices) for 0.5 second. A dose-dependent curve was drawn.
(A reporter such as luciferase makes a cellular process visible.)

T1 sequence (P37231 with tags, fused parts or gaps): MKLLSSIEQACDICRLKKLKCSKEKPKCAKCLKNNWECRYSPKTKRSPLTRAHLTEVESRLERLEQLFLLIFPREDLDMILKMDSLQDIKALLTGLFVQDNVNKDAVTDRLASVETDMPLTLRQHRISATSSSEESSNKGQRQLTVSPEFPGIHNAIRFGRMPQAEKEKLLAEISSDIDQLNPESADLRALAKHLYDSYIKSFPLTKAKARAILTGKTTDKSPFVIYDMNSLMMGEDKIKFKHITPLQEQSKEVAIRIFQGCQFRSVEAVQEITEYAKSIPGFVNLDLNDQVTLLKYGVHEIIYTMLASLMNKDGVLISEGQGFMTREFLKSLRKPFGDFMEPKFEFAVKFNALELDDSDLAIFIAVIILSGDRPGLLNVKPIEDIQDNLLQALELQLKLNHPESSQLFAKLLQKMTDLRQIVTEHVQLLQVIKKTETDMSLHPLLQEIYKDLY

In the case of `COc1cc(Oc2ccc3nc(COc4cccc(C(=O)O)c4)n(C)c3c2)cc(C)n1` [Example 17, 3-({6-[(2-Methoxy-6-methylpyridin-4-yl)oxy]-1-methyl-1H-benzimidazol-2-yl}methoxy)benzoic acid], in assay [1], the inhibition in vivo at 0.03 % in diet amounted to 36%. On to `CCc1cccnc1Oc1ccc2nc(COc3cccc(C(=O)O)c3)n(C)c2c1` [Example 2, 3-({6-[(3-Ethylpyridin-2-yl)oxy]-1-methyl-1H-benzimidazol-2-yl}methoxy)benzoic acid], for which the inhibition in vivo at 0.03 % in diet in assay [1] came to 31%. Also, in assay [2], it took 180 nM to reach a half-maximal effect (EC50) and the Emax was determined as 73%. As for `Cc1cnc(Oc2ccc3nc(COc4cccc(C(=O)O)c4)n(C)c3c2)c(C)c1` [Example 10, 3-({6-[(3,5-Dimethylpyridin-2-yl)oxy]-1-methyl-1H-benzimidazol-2-yl}methoxy)benzoic acid], the “Glucose lowering rate (%)” value in assay [1] is 37%. Turning to `Cc1cc(F)cnc1Oc1ccc2nc(COc3cccc(C(=O)O)c3)n(C)c2c1` [Example 8, 3-({6-[(5-Fluoro-3-methylpyridin-2-yl)oxy]-1-methyl-1H-benzimidazol-2-yl}methoxy)benzoic acid], in assay [1], the “Glucose lowering rate (%)” value is 33%. `Cc1ccc(Oc2ccc3nc(COc4cccc(C(=O)O)c4)n(C)c3c2)nc1C` [Example 4, 3-({6-[(5,6-Dimethylpyridin-2-yl)oxy]-1-methyl-1H-benzimidazol-2-yl}methoxy)benzoic acid]: the “Glucose lowering rate (%)” value in assay [1] came out at 28%. Still for that read-out and setting: the value for `Cc1cnc(Oc2ccc3nc(COc4cccc(C(=O)O)c4)n(C)c3c2)c(F)c1` [Example 9, 3-({6-[(3-Fluoro-5-methylpyridin-2-yl)oxy]-1-methyl-1H-benzimidazol-2-yl}methoxy)benzoic acid] was 41%.

For `Cn1c(COc2cccc(C(=O)O)c2)nc2ccc(Oc3ncc(Cl)cc3F)cc21` [Example 5, 3-({6-[(5-Chloro-3-fluoropyridin-2-yl)oxy]-1-methyl-1H-benzimidazol-2-yl}methoxy)benzoic acid], in assay [1], the inhibition in vivo at 0.03 % in diet came out at 34%. For the same molecule, in assay [2], the EC50 came to 24 nM and the Emax came to 79%.

Take `Cn1c(COc2cccc(C(=O)O)c2)nc2ccc(Oc3cccnc3)cc21` [Compound A, reference compound]: in assay [1], the inhibition in vivo at 0.03 % in diet is 20%. On to `Cc1cc(C)c(Oc2ccc3nc(COc4cccc(C(=O)O)c4)n(C)c3c2)nc1C` [Example 15, 3-({1-Methyl-6-[(3,5,6-trimethylpyridin-2-yl)oxy]-1H-benzimidazol-2-yl}methoxy)benzoic acid], for which the “Glucose lowering rate (%)” value in assay [1] came out at 30%. On to `COc1cc(Oc2ccc3nc(COc4cccc(C(=O)O)c4)n(C)c3c2)ccn1` [Example 16, 3-({6-[(2-Methoxypyridin-4-yl)oxy]-1-methyl-1H-benzimidazol-2-yl}methoxy)benzoic acid], for which the inhibition in vivo at 0.03 % in diet in assay [1] stood at 17%.
